Measured values as given in publication PMC6941952, “A homogeneous bioluminescent immunoassay to probe cellular signaling pathway regulation” (Communications Biology, 2020).
“And” between values parts separate entries of the source, which are not always exact repeats. Equal values may be shown once.

How the values were obtained:
Set-up in all cases: species or system human
[1] = system: total AKT; assay: NanoBiT cell-based immunoassay, total AKT in MCF-7 cells; conditions: for total level of AKT protein: MCF-7 cells, insulin 1 µM 10 min, LY294002 20 µM 1 h
Experimental: (§1) Prior to NanoBiT Cell-Based Immunoassay, 50,000 cells were seeded in 160 µl of complete growth media per well of a 96-well plate and incubated overnight. The cells were checked under microscope and it was determined that 50,000 cells per well in 96-well plate is under 90% confluency for all cells tested. If necessary, the cell culture media were replaced with serum-free media after the cells were stably adherent on the plate and incubated overnight. To treat cells with activators or inhibitors, medium was changed to 30 µl of medium containing inhibitors. If activation of a specific pathway is needed, the cells were stimulated with 10 µl of medium containing activators. To lyse the cells, 10 µl of lysis buffer containing 0.1% digitonin diluted in 1X immunoassay buffer with protease and phosphatase inhibitors was added and the plates were mixed vigorously for 20 min. Then, 50 µl of an antibody mix containing two primary antibodies against the target protein and NanoBiT detecting antibodies (0.3 µl each per well), diluted in 1X immunoassay buffer was added to the lysates. The plates were incubated at 23 °C for 90 min, followed by the addition of 25 µl of Nano-Glo® reagent consisting of Nano-Glo® Luciferase Assay Substrate mixed with 1X immunoassay buffer. Luminescence was measured using a plate-reading luminometer.
(§2) Single dose or dose response inhibitor treatments were performed prior to activation of the pathways as follows. For IκBα, the cells were treated in 30 µl medium with IKK16 or MG132 for 60 min before the addition of 10 µl of DMEM containing appropriate concentration of TNFα. To measure phosphorylation of AKT or STAT3, the corresponding NanoBiT immunoassays were developed with MCF-7 or A431 cells, respectively, according the same scheme used to develop the IκBα assay using the primary antibodies for AKT and STAT3 described in the reagents section. For the AKT assay, MCF-7 cells were incubated overnight in phenol-red free DMEM medium (Gibco #21063-029) without serum. Treatment with LY294002 was performed in 30 µl medium and cells were incubated for 60 min before the addition of 1 µM Insulin. To measure STAT3 phosphorylation, A431 cells were incubated overnight in DMEM medium without serum. […] After addition of the stimulators, the cells were incubated for additional times as follows. IκBα phosphorylation and degradation analyses required both time courses and single time points as described in figures. […] The NanoBiT immunoassay protocol was followed as described above.
(§3) All 96-well assay plates were read using a GloMax® 96 Microplate Luminometer from Promega. The instrument was set to 0.5 s integration time. In order to obtain net change of signal, the reagent background values (signal from the well containing all reagent except primary antibodies) were subtracted from the sample values. To plot and analyze the data, Microsoft Excel and GraphPad Prism® Software were used. IC50 values were determined by using a nonlinear regression fit to a sigmoidal dose response (variable slope).

[2] = system: AKT Phospho-Ser473; assay: NanoBiT p-AKT cell-based immunoassay in MCF-7 cells; conditions: for P-AKT (% compared to no LY294002) / P-AKT, Raw data / P-AKT, Subtract reagent background: single replicates
Experimental: as §1, §2, §3

[3] = system: STAT3 Phospho-Tyr705; assay: NanoBiT pSTAT3 cell-based immunoassay in A431 cells; conditions: substance alone
Experimental: as §1, with “The cells were checked under microscope and it was determined that 50,000 cells per well in 96-well plate is under 90% confluency for all cells tested.” left out
as §2, with “For the AKT assay, MCF-7 cells were incubated overnight in phenol-red free DMEM medium (Gibco #21063-029) without serum.” left out
as §3

[4] = system: total STAT3; assay: NanoBiT cell-based immunoassay, total STAT3 in A431 cells; conditions: substance alone
Experimental: as §1, with “The cells were checked under microscope and it was determined that 50,000 cells per well in 96-well plate is under 90% confluency for all cells tested.” left out
Single dose or dose response inhibitor treatments were performed prior to activation of the pathways as follows. For IκBα, the cells were treated in 30 µl medium with IKK16 or MG132 for 60 min before the addition of 10 µl of DMEM containing appropriate concentration of TNFα. To measure phosphorylation of AKT or STAT3, the corresponding NanoBiT immunoassays were developed with MCF-7 or A431 cells, respectively, according the same scheme used to develop the IκBα assay using the primary antibodies for AKT and STAT3 described in the reagents section. […] Treatment with LY294002 was performed in 30 µl medium and cells were incubated for 60 min before the addition of 1 µM Insulin. […]
All 96-well assay plates were read using a GloMax® 96 Microplate Luminometer from Promega. […] IC50 values were determined by using a nonlinear regression fit to a sigmoidal dose response (variable slope).

[5] = LY294002 0.00190735 uM, Insulin 1 uM
[6] = LY294002 0.00762939 uM, Insulin 1 uM
[7] = LY294002 0.0305176 uM, Insulin 1 uM
[8] = LY294002 0.12207 uM, Insulin 1 uM
[9] = LY294002 0.488281 uM, Insulin 1 uM
[10] = LY294002 1.95312 uM, Insulin 1 uM
[11] = LY294002 7.8125 uM, Insulin 1 uM
[12] = LY294002 31.25 uM, Insulin 1 uM
[13] = background subtracted, average of replicates
[14] = substance alone, background subtracted, average of replicates
[15] = substance alone, single replicates

Molecule: O=c1cc(N2CCOCC2)oc2c(-c3ccccc3)cccc12 [LY294002, 2-(4-morpholinyl)-8-phenyl-4H-1-benzopyran-4-one]
- total level of AKT protein [1]: stayed constant
- IC50 ([2]; Homo sapiens, MCF7, MCF-7 cells, pretreated 1 h, insulin 1 µM 10 min, read-out: IC50, inhibition of AKT phosphorylation after insulin treatment): 8.89 µM
- P-AKT (% compared to no LY294002), Average ([2]; LY294002 0.00190735 uM, Insulin 1 uM, average of replicates): 98.2%
- P-AKT (% compared to no LY294002) [2, 5]: 99.8% and 97.4% and 97.5%
- P-AKT, Raw data [2, 5]: 2596000 and 2655000 and 2614000
- P-AKT, Subtract reagent background [2, 5]: 2495800 and 2454800 and 2436800
- P-AKT (% compared to no LY294002), Average ([2]; LY294002 0.00762939 uM, Insulin 1 uM, average of replicates): 100.2%
- P-AKT (% compared to no LY294002) [2, 6]: 101.9% and 99.8% and 98.9%
- P-AKT, Raw data [2, 6]: 2632000 and 2707000 and 2673000
- P-AKT, Subtract reagent background [2, 6]: 2548800 and 2514800 and 2473800
- P-AKT (% compared to no LY294002), Average ([2]; LY294002 0.0305176 uM, Insulin 1 uM, average of replicates): 99.6%
- P-AKT (% compared to no LY294002) [2, 7]: 100.5% and 98.7% and 99.6%
- P-AKT, Raw data [2, 7]: 2646000 and 2668000 and 2645000
- P-AKT, Subtract reagent background [2, 7]: 2511750 and 2488750 and 2489750
- P-AKT (% compared to no LY294002), Average ([2]; LY294002 0.12207 uM, Insulin 1 uM, average of replicates): 97.0%
- P-AKT (% compared to no LY294002) [2, 8]: 98.2% and 96.0% and 96.8%
- P-AKT, Raw data [2, 8]: 2577000 and 2614000 and 2578000
- P-AKT, Subtract reagent background [2, 8]: 2456500 and 2420500 and 2419500
- P-AKT (% compared to no LY294002), Average ([2]; LY294002 0.488281 uM, Insulin 1 uM, average of replicates): 97.0%
- P-AKT (% compared to no LY294002) [2, 9]: 100.1% and 96.2% and 94.5%
- P-AKT, Raw data [2, 9]: 2521000 and 2661000 and 2582000
- P-AKT, Subtract reagent background [2, 9]: 2503600 and 2424600 and 2363600
- P-AKT (% compared to no LY294002), Average ([2]; LY294002 1.95312 uM, Insulin 1 uM, average of replicates): 89.9%
- P-AKT (% compared to no LY294002) [2, 10]: 90.1% and 89.4%
- P-AKT, Raw data [2, 10]: 2390000 and 2409000 and 2425000
- P-AKT, Subtract reagent background [2, 10]: 2253650 and 2269650 and 2234650
- P-AKT (% compared to no LY294002), Average ([2]; LY294002 7.8125 uM, Insulin 1 uM, average of replicates): 57.7%
- P-AKT (% compared to no LY294002) [2, 11]: 58.2% and 58.0% and 57.0%
- P-AKT, Raw data [2, 11]: 1581000 and 1612000 and 1617000
- P-AKT, Subtract reagent background [2, 11]: 1455800 and 1460800 and 1424800
- P-AKT (% compared to no LY294002), Average ([2]; LY294002 31.25 uM, Insulin 1 uM, average of replicates): 11.5%
- P-AKT (% compared to no LY294002) [2, 12]: 11.5% and 11.7% and 11.4%
- P-AKT, Raw data [2, 12]: 439900 and 442300 and 448200
- P-AKT, Subtract reagent background [2, 12]: 288200 and 294100 and 285800
- P-AKT (% compared to no LY294002), Average ([2]; LY294002 500 uM, Insulin 1 uM, average of replicates): 1.5%
- P-AKT (% compared to no LY294002) ([2]; LY294002 500 uM, Insulin 1 uM): 1.5% and 1.4% and 1.6%
- P-AKT, Raw data ([2]; LY294002 500 uM, Insulin 1 uM): 166500 and 165600 and 161400
- P-AKT, Subtract reagent background ([2]; LY294002 500 uM, Insulin 1 uM): 38600 and 34400 and 39500
- P-AKT (% compared to no LY294002), Average ([2]; LY294002 […], Insulin 1 uM, average of replicates): 1.8%
- insulin-induced increase in AKT phosphorylation ([2]; MCF-7 cells, 20 µM 1 h pretreatment, insulin 1 µM 10 min): suppressed

Molecule: IL-6
- P-STAT3, Average [3, 13]: 418850
- P-STAT3 Raw data ([3]; single replicates): 458600 and 528900 and 577100
- P-STAT3 Subtract reagent background ([3]; single replicates): 355917 and 426217 and 474417
- Total STAT3, Average [4, 13]: 1196983
- Total Stat3, Raw data ([4]; single replicates): 1090000 and 1448000
- Total Stat3, Subtract reagent background ([4]; single replicates): 1345317 and 987317

Molecule: insulin: Insulin (#I-0516) from Sigma-Aldrich, AKT pathway stimulator
- total level of AKT protein [1]: stayed constant
- Total AKT, Average [1, 14]: 108225
- Total AKT, Raw data [1, 15]: 265700 and 270200 and 257000 and 278000
- Total AKT, Subtract reagent background [1, 15]: 121700 and 104800 and 109800 and 96600
- AKT phosphorylation over the level in non-treated cells ([2]; MCF-7 cells, insulin 1 µM 10 min): more than 20 fold
- P-AKT, Average [2, 14]: 2201625
- P-AKT, Raw data ([2]; substance alone): 2263000 and 2421000 and 2357000 and 2406000
- P-AKT, Subtract reagent background ([2]; substance alone): 2102700 and 2260800 and 2195400 and 2247600
